Like-named read-outs stand apart in the source and are kept apart here.
Key:
[1] = test system: HCT116 cells; assay: CCK-8 cell viability assay; assay type: cell-based; conditions: for IC50: Homo sapiens
Description: (§1) The cells were cultured in 96-well plates at a density of 5 × 10^3 cells/well. Cell viability was assessed with CCK-8 Kit at indicated time post-treatment according to the manufacturer’s instructions. To estimate the viability of the cells, the absorbance of 450 nm (OD450) was measured with a Microplate Reader (BIO-TEK, Inc., Winooski, VT, United States). The IC50 value was calculated by GraphPad Prism 8.0 (San Diego, CA, United States) software.

[2] = Body weight of xenograft mice; assay type: in vivo, BALB/c nude mice; conditions: 10 mg/kg/d ip over 21 days
Description: (§2) Male BALB/c nude mice (5–6 weeks) were purchased from the Jiesijie Experimental Animal Co. Ltd (Shanghai, China). All mice were maintained under SPF conditions and at constant temperature (25 °C) and relative humidity (65%) with a 12 h light/dark cycle. HCT116 cells (1 × 10^6) were inoculated into 6–7 weeks-old mice subcutaneously. Tumor volumes were evaluated by calipers and calculated using the standard formula: volume = length × width^2 × 0.5. Once tumor volume exceeded approximately 100 mm^3. […] Tumor volume was measured every 2 days. The protocols for animal care and euthanasia were approved by the Institutional Animal Care and Use Committee of Shanghai Ocean University (Shanghai, China).

[3] = test system: HT29 cells; assay: CCK-8 cell viability assay; assay type: cell-based; conditions: Homo sapiens, HT-29, 72 h
Description: as §1

[4] = test system: normal renal epithelial 293T cells; assay: CCK-8 cell viability assay (normal cells); assay type: cell-based; conditions: low concentration of HR488B (0.1-1 μM), 72 h
Description: as §1

[5] = test system: HCT116 xenograft; assay: HCT116 xenograft model in nude mice; assay type: in vivo, BALB/c nude mice
Description: as §2

[6] = test system: HCT116 cells; assay: Colony formation assay; assay type: cell-based; conditions: HCT116, 0.2, 0.5 and 1 μM, 14 days
Description: (§3) The culture medium was refreshed every other day. Cells were then continuously incubated in a new fresh medium for 10–14 days, the colonies were fixed with methanol for 15 min, stained with 0.5% crystal violet for 15 min, and photographed. Colonies were manually counted using ImageJ software.

[7] = test system: HT29 cells; assay: Colony formation assay; assay type: cell-based; conditions: HT29, 0.2, 0.5 and 1 μM, 14 days
Description: as §3

[8] = test system: acetylated H3/H4 protein in HCT116 cells; assay: Western blot of acetylated H3/H4; assay type: cell-based; conditions: HCT116, 0.2, 0.5 and 1 μM, 24 h, compared with SAHA 1 μM
Description: (§4) Western blot analysis was performed as in our previous reports. The cells were lysed in RIPA buffer with a complete protease inhibitor cocktail for 10 min on ice followed by centrifugation at 4 °C. The concentration of proteins was determined by the BCA Protein Kit (TIANGEN, Shanghai, China). Equal amounts of total proteins were resuspended in loading buffer, boiled at 100 °C for 5 min, and separated by 10–15% […] gel electrophoresis (SDS-PAGE). Proteins were transferred onto PVDF membranes (Merck Millipore, #IPFL00010, Germany), then the membranes were blocked with 5% non-fat dry milk, and the membranes were incubated with indicated primary antibodies diluted in BSA buffer, overnight at 4 °C. The membranes were washed three times in TBST followed by 1 h incubation with secondary antibodies conjugated with horseradish peroxidase (HRP) at room temperature. Then the membranes were washed before enhanced chemiluminescence. Immunoblots were visualized with the Bio-Rad ChemiDoc XRS system. Quantification was directly performed on the blot using the Image Lab software.

[9] = test system: acetylated H3/H4 protein in HT29 cells; assay: Western blot of acetylated H3/H4; assay type: cell-based; conditions: HT29, 0.2, 0.5 and 1 μM, 24 h, compared with SAHA 1 μM
Description: as §4

IC50 ([1]; HCT-116, 72 h) [µM] | IC50 ([1]; HCT-116, HCT116 cells, 72 h, CCK-8, read-out: IC50) [µM] | IC50 [3] [µM] | SMILES | body weight of mice [2] | inhibitory effect on cell viability (in-house HDACi library screen) ([1]; HCT116 cells, 2.5 μM, 72 h, CCK-8) | cellular toxicity of 293T cells [4] | average tumor weight ([5]; 10 mg/kg ip, compared with control and SAHA-treated group) | tumor volume ([5]; 10 mg/kg/d ip over 21 days, compared with control group and SAHA treatment group) | number and size of colonies [6] | number and size of colonies [7] | acetylation of H3 and H4 [8] | acetylation of H3 and H4 [9]
2.13 | – | – | O=C(CCCCCCC(=O)Nc1ccccc1)NO [SAHA, reference compound] | did not decrease notably | – | – | – | – | – | – | – | –
– | 0.17 | 0.59 | COc1ccc(N(Cc2nc(-c3ccccc3Cl)cs2)C(=O)CCCCCC(=O)NO)cc1 [HR488B] | did not decrease notably | optimum inhibitory effect | did not observe any significant cellular toxicity | obviously lower | marked reduction in tumor volume | obviously reduced the number and size of the colonies | obviously reduced the number and size of the colonies | significantly increased the acetylation of H3 and H4 in a dose-dependent manner | significantly increased the acetylation of H3 and H4 in a dose-dependent manner

From article PMC10703885 (Cell Death & Disease, 2023)
